Test system: phosphorylation of Serine-9 residue in Glycogen Synthase Kinase-3beta as surrogate marker of cellular PKB (Akt) activity
Experiment: In vitro MDA-MB-468 human breast adenocarcinoma GSK-3 phosphorylation assay
Assay type: cell-based
Details: MDA-MB-468 cells, 2 hours compound incubation, mean IC50, read-out: Cell pGSK3b IC50
Source text: This assay determines the ability of test compounds to inhibit phosphorylation of Serine-9 residue in Glycogen Synthase Kinase-3beta (GSK-313) as a surrogate marker of cellular PKB (Akt) activity, as assessed using Acumen Explorer Fluorescent Plate-Reader technology. A MDA-MB-468 human breast adenocarcinoma cell line (LGC Promochem, Teddington, Middlesex, UK, Catalogue No. HTB-132) was routinely maintained in Dulbecco's modified Eagle's growth medium (DMEM; Invitrogen Limited, Paisley, UK Catalogue No. 11966-025) containing 10% heat-inactivated foetal calf serum (FCS; Sigma, Poole, Dorset, UK, Catalogue No. F0392) and 1% L-glutamine (Gibco, Catalogue No. 25030-024) at 37° C. with 5% CO2 up to a confluency of 70-90%.
For the phosphorylation assay, the cells were detached from the culture flask using Trypsin-EDTA (Invitrogen Limited, Catalogue No. 25300-062) and seeded into the wells of a black transparent-bottom Corning Costar Polystyrene 96 well plate (Fisher Scientific UK, Loughborough, Leicestershire, UK; Catalogue No. 3904 and DPS-130-020K) at a density of 5000 cells per well in 100 μl of complete growth media. The cells were incubated overnight at 37° C. with 5% CO2 to allow them to adhere.
On day 2, the cells were treated with test compounds and incubated for 2 hours at 37° C. with 5% CO2. Test compounds were prepared as 10mM stock solutions in DMSO and dosed directly to required concentration into test wells using non-contact (acoustic dispensing of multiple 2.5 nl droplets directly into assay wells) ECHO dosing technology (Labcyte Inc Sunnyvale, Calif., USA). Each plate contained control wells without test compound.
20 μl of fixing buffer (Phosphate Buffered Saline (PBS) containing 10% formaldehyde; Sigma; Catalogue No. F1635) was then added to each well to give a final well concentration 1.6%. Plates were then incubated for 30 minutes at room temperature prior to the fixative being removed. Each well was washed once with 250 μl of PBS and then 50 μl PBS added to each well. PBS was then aspirated and cells permeabilised and blocked by incubating each well with 50 μl of permeabilisation/blocking buffer (PBS containing 0.5% Tween 20 (Sigma; Catalogue No. P5927) and 5% Marvel Milk Powder (Andrews Pharmacy Ltd, Macclesfield, Cheshire, UK; Catalogue No. APC100199)) for 1 hour at room temperature prior to staining.
Following removal of Perm/Block buffer, 50 μl of primary anti-phospho-GSK-3β antibody (Cell Signalling Technology (New England Biolabs (Uk) Ltd.), Hitchin, Hertfordshire, UK; Catalogue No.9336 diluted 1:400 in Blocking buffer (PBS containing 5% Marvel and 0.05% Tween/Polysorbate 20) was added to each well and incubated overnight at 4° C.
Each well was washed three times in 250 μl of wash buffer (PBS containing 0.05% polysorbate 20), and cells incubated for 1 hour at room temperature with 50 μl of secondary fluorescently-labelled anti-rabbit Alexa Fluor 488 antibody (Molecular Probes, Invitrogen Limited, Catalogue No. A11008) diluted 1:750 in blocking buffer. Plates were washed three times in 250 μl of wash buffer and stored containing 50 μl of PBS at 4° C. until required.
Plates were analysed using an Acumen Explorer Plate-reader to quantify level of fluorescent signal that represents quantity of phosphorylated-GSK-313.
IC50 calculation—IC50 is the concentration of compound required to give 50% effect over the range of activity affected by the compound, between maximum (no compound) and minimum (excess level of compound) response control data. IC50 values were determined by fitting background corrected, dose response assay data to a 4 parameter logistic curve fit equation model with the minimum response set to zero. This was done using an in-house developed algorithm within the Origin graphing software package (OriginLab Corporation, Northampton, Mass., USA). […]

Row | Structure (SMILES) | IC50 [nM]
1 | NC1(c2nc3cc(-c4ccccc4)ccc3[nH]2)CCN(c2ncnc3[nH]ccc23)CC1 [Example 68D, 4-(5-phenyl-1H-benzo[d]imidazol-2-yl)-1-(7H-pyrrolo[2,3-d]pyrimidin-4-yl)piperidin-4-amine] | 2400
2 | NCC1(c2nc3ccccc3[nH]2)CCN(c2ncnc3[nH]nc(Br)c23)CC1 [Example 46, (4-(1H-benzo[d]imidazol-2-yl)-1-(3-bromo-1H-pyrazolo[3,4-d]pyrimidin-4-yl)piperidin-4-yl)methanamine] | 97
3 | Cc1cc2[nH]c(C3(N)CCN(c4ncnc5[nH]ccc45)CC3)nc2cc1Cl [Example 57, 4-(5-chloro-6-methyl-1H-benzo[d]imidazol-2-yl)-1-(7H-pyrrolo[2,3-d]pyrimidin-4-yl)piperidin-4-amine] | > 2100
4 | NC1(c2nc3c(Br)cccc3[nH]2)CCN(c2ncnc3[nH]ccc23)CC1 [Example 85, 4-(7-Bromo-1H-benzo[d]imidazol-2-yl)-1-(7H-pyrrolo[2,3-d]pyrimidin-4-yl)piperidin-4-amine] | 350
5 | NC1(c2nc3c(-c4ccccc4)cccc3[nH]2)CCN(c2ncnc3[nH]ccc23)CC1 [Example 42, 4-(4-Phenyl-1H-benzoimidazol-2-yl)-1-(7H-pyrrolo[2,3-d]pyrimidin-4-yl)-piperidin-ylamine] | < 31
6 | NC1(c2nc3cc(Cl)c(Cl)cc3[nH]2)CCN(c2ncnc3[nH]ccc23)CC1 [Example 53, 4-(5,6-Dichloro-1H-benzoimidazol-2-yl)-1-(7H-pyrrolo[2,3-d]pyrimidin-4-yl)-piperidin-4-ylamine] | 1800
7 | NC1(c2nc3cc(-c4ccco4)ccc3[nH]2)CCN(c2ncnc3[nH]ccc23)CC1 [Example 72] | 3000
8 | NC1(c2nc3cc(-c4cccnc4)ccc3[nH]2)CCN(c2ncnc3[nH]ccc23)CC1 [Example 77, 4-(5-pyridin-3-yl-1H-benzimidazol-2-yl)-1-(7H-pyrrolo[2,3-d]pyrimidin-4-yl)piperidin-4-amine] | 12000
9 | NC1(c2nc3cc(OC(F)(F)F)ccc3[nH]2)CCN(c2ncnc3[nH]ccc23)CC1 [Example 61, 1-(7H-Pyrrolo[2,3-d]pyrimidin-4-yl)-4-(5-(trifluoromethoxy)-1H-benzo[d]imidazol-2-yl)piperidin-4-amine] | 620
10 | COc1ccc(-c2ccc3[nH]c(C4(N)CCN(c5ncnc6[nH]ccc56)CC4)nc3c2)cc1 [Example 73, 4-[5-(4-methoxyphenyl)-1H-benzimidazol-2-yl]-1-(7H-pyrrolo[2,3-d]pyrimidin-4-yl)piperidin-4-amine] | 3300
11 | COc1ccc(-c2cccc3[nH]c(C4(N)CCN(c5ncnc6[nH]ccc56)CC4)nc23)cc1 [Example 82, -[4-(4-methoxyphenyl)-1H-benzimidazol-2-yl]-1-(7H-pyrrolo[2,3-d]pyrimidin-4-yl)piperidin-4-amine] | 120
12 | NCC1(c2nc3cc(Cl)ccc3[nH]2)CCN(c2ncnc3[nH]ccc23)CC1 [Example 67B, (4-(5-chloro-1H-benzo[d]imidazol-2-yl)-1-(7H-pyrrolo[2,3-d]pyrimidin-4-yl)piperidin-4-yl)methanamine] | 62
13 | NCC1(c2nc3ccccc3[nH]2)CCN(c2ncnc3[nH]cnc23)CC1 [Example 44, (4-(1H-benzo[d]imidazol-2-yl)-1-(9H-purin-6-yl)piperidin-4-yl)methanamine] | 120
14 | NCC1(c2nc3cc(Cl)ccc3[nH]2)CCN(c2ncnc3[nH]cnc23)CC1 [Example 66G, (4-(5-chloro-1H-benzo[d]imidazol-2-yl)-1-(9H-purin-6-yl)piperidin-4-yl)methanamine] | 110
15 | Cc1c[nH]c2ncnc(N3CCC(CN)(c4nc5ccccc5[nH]4)CC3)c12 [Example 47, (4-(1H-benzo[d]imidazol-2-yl)-1-(5-methyl-7H-pyrrolo[2,3-d]pyrimidin-4-yl)piperidin-4-yl)methanamine] | 170
16 | COc1ccccc1-c1cccc2[nH]c(C3(N)CCN(c4ncnc5[nH]ccc45)CC3)nc12 [Example 80, 4-[4-(2-methoxyphenyl)-1H-benzimidazol-2-yl]-1-(7H-pyrrolo[2,3-d]pyrimidin-4-yl)piperidin-4-amine] | 64
17 | NCC1(c2nc3ccccc3[nH]2)CCN(c2ncnc3[nH]ccc23)CC1 [Example 34D, C-[4-(1H-Benzoimidazol-2-yl)-1-(7H-pyrrolo[2,3-d]pyrimidin-4-yl)-piperidin-4-yl]-methylamine] | 86
18 | COc1cccc(-c2cccc3[nH]c(C4(N)CCN(c5ncnc6[nH]ccc56)CC4)nc23)c1 [Example 81, -[4-(3-methoxyphenyl)-1H-benzimidazol-2-yl]-1-(7H-pyrrolo[2,3-d]pyrimidin-4-yl)piperidin-4-amine] | 140

Results, then the molecule that gave them:

Row | IC50 [nM] | Structure (SMILES)
19 | 33 | NC1(c2nc3c(-c4ccccc4)cccc3[nH]2)CCN(c2ncnc3[nH]cnc23)CC1 [Example 103, 4-(4-Phenyl-1H-benzimidazol-2-yl)-1-(9H-purin-6-yl)piperidin-4-amine]
20 | 85 | Cc1ccc2[nH]c(C3(CN)CCN(c4ncnc5[nH]ccc45)CC3)nc2c1 [Example 97, (4-(5-methyl-1H-benzo[d]imidazol-2-yl)-1-(7H-pyrrolo[2,3-d]pyrimidin-4-yl)piperidin-4-yl)methanamine]
21 | 120 | COc1ccc(-c2cccc3[nH]c(C4(N)CCN(c5ncnc6[nH]cnc56)CC4)nc23)cc1 [Example 104, 4-[4-(4-methoxyphenyl)-1H-benzimidazol-2-yl]-1-(9H-purin-6-yl)piperidin-4-amine]
22 | 47 | NC1(c2nc3c(-c4cccc(S(N)(=O)=O)c4)cccc3[nH]2)CCN(c2ncnc3[nH]ccc23)CC1 [Example 94, 3-[2-[4-amino-1-(7H-pyrrolo[3,2-e]pyrimidin-4-yl)piperidin-4-yl]-1H-benzimidazol-4-yl]benzenesulfonamide]
23 | 270 | CS(=O)(=O)Cc1cccc(-c2cccc3[nH]c(C4(N)CCN(c5ncnc6[nH]ccc56)CC4)nc23)c1 [Example 115, 4-(4-(3-(methylsulfonylmethyl)phenyl)-1H-benzo[d]imidazol-2-yl)-1-(7H-pyrrolo[2,3-d]pyrimidin-4-yl)piperidin-4-amine]
24 | 52 | NC1(c2nc3c(-c4ccoc4)cccc3[nH]2)CCN(c2ncnc3[nH]ccc23)CC1 [Example 88, 4-[7-(3-furyl)-1H-benzimidazol-2-yl]-1-(7H-pyrrolo[2,3-d]pyrimidin-4-yl)piperidin-4-amine]
25 | 38 | NCc1cc(-c2cccc3[nH]c(C4(N)CCN(c5ncnc6[nH]ccc56)CC4)nc23)ccc1F [Example 113, 4-(4-(3-(aminomethyl)-4-fluorophenyl)-1H-benzo[d]imidazol-2-yl)-1-(7H-pyrrolo[2,3-d]pyrimidin-4-yl)piperidin-4-amine]
26 | 650 | COc1ccc(-c2cccc3[nH]c(C4(N)CCN(c5ncnc6[nH]ncc56)CC4)nc23)cc1 [Example 109, 4-[4-(4-methoxyphenyl)-1H-benzo[d]imidazol-2-yl)-1-(1H-pyrazolo[3,4-d]pyrimidin-4-yl)piperidin-4-amine]
27 | 15 | NCC1(c2nc3c(-c4ccccc4)cccc3[nH]2)CCN(c2ncnc3[nH]ccc23)CC1 [Example 99, (4-(4-phenyl-1H-benzo[d]imidazol-2-yl)-1-(7H-pyrrolo[2,3-d]pyrimidin-4-yl)piperidin-4-yl)methanamine]
